According to patent US12285407B2, “Bis-indolylmethane derivatives and uses thereof” (The University of The West Indies, priority 2018, dated 2025):

Key:
[1] = test system: Streptococcus pyogenes ATCC 19615; assay: Broth microdilution MIC of SP-BIMs; type: cell-based; conditions: ATCC19615, SP-BIM alone, read-out: MIC Streptococcus pyogenes ATCC 19615
[2] = test system: Bacillus cereus ATCC 14579; assay: Broth microdilution MIC of SP-BIMs; type: cell-based; conditions: ATCC14579, SP-BIM alone, read-out: MIC Bacillus cereus ATCC 14579
[3] = test system: Enterococcus faecium ATCC 19434; assay: Broth microdilution MIC of SP-BIMs; type: cell-based; conditions: ATCC19434, SP-BIM alone, read-out: MIC Enterococcus faecium ATCC 19434
[4] = test system: Corynebacterium diphtheriae ATCC 27010; assay: Broth microdilution MIC of SP-BIMs; type: cell-based; conditions: ATCC27010, SP-BIM alone, read-out: MIC Corynebacterium diphtheriae ATCC 27010
[5] = test system: Staphylococcus aureus ATCC 12600; assay: Broth microdilution MIC of SP-BIMs; type: cell-based; conditions: ATCC12600, SP-BIM alone, read-out: MIC Staphylococcus aureus ATCC 12600
[6] = test system: Klebsiella pneumoniae ATCC 49472; assay: Broth microdilution MIC of SP-BIMs; type: cell-based; conditions: ATCC49472, SP-BIM alone, read-out: MIC Klebisella pneumoniae ATCC 49472
[7] = test system: Escherichia coli ATCC 35218; assay: Broth microdilution MIC of SP-BIMs; type: cell-based; conditions: ATCC35218, SP-BIM alone, read-out: MIC Escherichia coli ATCC 35218
[8] = test system: Salmonella typhimurium ATCC 14028; assay: Broth microdilution MIC of SP-BIMs; type: cell-based; conditions: Salmonella enterica, read-out: MIC Salmonella tvpkimurium ATCC 14028
Description: Reference microorganisms used in this study included: Bacillus cereus (American Type Culture Collection (ATCC) No. 14579), Streptococcus pyogenes (ATCC No. 19615), Staphylococcus aureus (ATCC No. 12600), Enterococcus faecium (ATCC No. 19434), Corynebacterium diphtheriae (ATCC No. 27010), Escherichia coli (ATCC No. 35218), Salmonella typhimurium (ATCC No. 14028), Pseudomonas aeruginosa (ATCC No. 27853), Klebsiella pneumoniae (ATCC No. 49472), and Candida albicans (ATCC No. 22972).
Prior to each experiment, cultures were streaked onto clean BHI agar plates and incubated at 35° C. for 24 hours. Colonies of the respective cultures were selected and inoculated in phosphate buffer saline (pH 7.5) to a 0.5 McFarland turbidity standard (equivalent to 10^8 CFU mL^−1). The bacterial suspension was then diluted 1:100 in cation adjusted Mueller Hinton Broth (ca-MHB) (Oxoid Ltd, Basingstoke, Hampshire, England).
Stock solutions (50 mg mL^−1) of the SP-BIM test compounds were prepared in DMSO and stored at 4° C. Working preparations of each compound was made up to 1 mg/mL in sterile deionized water with a final DMSO concentration of 10%.
To assess the antibiotic properties of the library of SP-BIMs, the broth microdilution assay was performed in 96-well microplates according to the Clinical and Laboratory Standards Institute 2014 Guidelines (CLSI 2014). The broth microdilution assay was used to determine the minimum inhibitory concentration (MIC). […] Bacterial cells (˜10^6 CFU mL^−1) were inoculated into cation adjusted-Mueller Hinton broth containing the test compound in a twofold serial dilution ranging between 250 μg mL^−1 and 0.02 μg mL^−1. Plates were incubated at 35° C. for 18 hours after which 50 μL of 5% resazurin solution was added to each well. Resazurin is a blue dye which, upon reduction by living cells, turns to a pink resorufin product. Plates were shaken for 1 hour after the addition of the dye. The MIC was recorded as the well with the lowest concentration of test compound where no color change was observed.

[9] = test system: Pseudomonas aeruginosa ATCC 27853; assay: Broth microdilution MIC of SP-BIMs; type: cell-based; conditions: ATCC27853, SP-BIM alone, read-out: MIC Pseudomonas aeruginosa ATCC 27853
[10] = test system: Candida albicans ATCC 22972; assay: Broth microdilution MIC of SP-BIMs; type: cell-based; conditions: ATCC22972, SP-BIM alone, read-out: MIC Candida albicans ATCC 22972
Streptococcus pneumoniae [11] = assay: Adjuvant broth microdilution (antibiotic MIC with SP-BIM at 50 μg/mL); type: cell-based; conditions: Streptococcus pneumoniae, Streptococcus pneumonia, SP-BIM at 50 μg mL^−1
Gram-negative bacteria = assay: Adjuvant broth microdilution; type: cell-based; conditions: SP-BIM at 50 μg mL^−1
Method: To each well, the SP-BIM to be tested was added to a final concentration of 50 μg mL^−1. […] SP-BIMs were assessed as potential adjuvants based on their ability to reduce the MIC of the antibiotic against respective pathogen.

sheep erythrocyte = assay: Hemotoxicity (hemolysis assay); type: cell-based; conditions: 2% sheep erythrocyte solution; SP-BIMs 6, 11 and 18 at concentrations between 125-16 μg mL^−1
Method: Hemotoxicity of the SP-BIMs were assessed following Wauford, “Hemolysis Assay”, protocols.io/view/hemolysis-assay-fxkbpkw (2016). Briefly, twofold serial dilutions of each test SP-BIM were added to 2% sheep erythrocyte solution and incubated for 30 minutes at 37° C. Samples were centrifuged at 2500 g for 5 minutes and the absorbance of the supernatants measured at 541 nm. Values were represented as percent hemolysis using freeze thaw cells as 100% lysis.

Staphylococcus aureus = assay: Checkerboard synergy (FICI) of antibiotics with SP-BIM; type: cell-based
Streptococcus pneumoniae [12] = assay: as above; type: cell-based; conditions: Streptococcus pneumoniae
Bacillus cereus = assay: as above; type: cell-based; conditions: SP-BIM 9 alone, one value per antibiotic's checkerboard, read-out: MIC SP-BIM 9 only
Enterococcus faecium = assay: as above; type: cell-based
Klebsiella pneumoniae = assay: as above; type: cell-based; conditions: SP-BIM 9 alone, one value per antibiotic's checkerboard, read-out: MIC SP-BIM 9 only
[13] = test system: reference pathogen strains; assay: Checkerboard synergy study, summary over pathogens; type: cell-based; conditions: Gram-positive pathogens
MRSA HS 10132 = assay: Systemic non-lethal MRSA infection in mice (organ MRSA load); type: in vivo
Escherichia coli = assay: Checkerboard synergy (FICI) of antibiotics with SP-BIM; conditions: read-out: MIC SP-BIM 9 only, Escherichia coli, SP-BIM 9 alone, one value per antibiotic's checkerboard
[14] = read-out: MIC of Kanamvcin with SP-BIM
[15] = read-out: MIC of Vancomvcin with SP-BIM
[16] = MRSA, checkerboard with SP-BIM 9
[17] = ampicillin and SP-BIM 9 at 5 mg kg^−1
[18] = ampicillin and SP-BIM 9 at 10 mg kg^−1

SMILES: O=Cc1cccc(C(c2c[nH]c3ccccc23)c2c[nH]c3ccccc23)c1 [SP-BIM 6, 3-(di(1H-indol-3-yl)methyl)benzaldehyde]
- MIC [1]: > 250 µg/mL
- MIC [2]: > 250 µg/mL
- MIC [3]: > 250 µg/mL
- MIC [4]: > 250 µg/mL
- MIC [5]: > 250 µg/mL
- MIC [6]: > 250 µg/mL
- MIC [7]: > 250 µg/mL
- MIC [8]: 250 µg/mL
- MIC [9]: 250 µg/mL
- MIC [10]: 250 µg/mL
- MIC (Streptococcus pneumoniae [11]; [14]): 4 µg/mL
- MIC (Streptococcus pneumoniae [11]; [15]): 0.5 µg/mL
- potentiating activity for Gram-negative bacteria (Gram-negative bacteria): No potentiating activity was observed
- hemotoxicity (sheep erythrocyte): very hemotoxic

SMILES: Oc1cccc(C(c2c[nH]c3ccccc23)c2c[nH]c3ccccc23)c1 [SP-BIM 9, 3-(di(1H-indol-3-yl)methyl)phenol]
- MIC [1]: > 250 µg/mL
- MIC [2]: > 250 µg/mL
- MIC [3]: > 250 µg/mL
- MIC [4]: > 250 µg/mL
- MIC [5]: > 250 µg/mL
- MIC [6]: > 250 µg/mL
- MIC [7]: > 250 µg/mL
- MIC [8]: 250 µg/mL
- MIC [9]: 250 µg/mL
- MIC [10]: 250 µg/mL
- MIC (Streptococcus pneumoniae [11]; [14]): 4 µg/mL
- MIC (Streptococcus pneumoniae [11]; [15]): 0.2 µg/mL
- MIC of aztreonam in combination with 32 μg mL^−1 of SP-BIM 9 (Staphylococcus aureus; MRSA, checkerboard): 8 µg/mL
- effect on MIC of trimethoprim (Staphylococcus aureus; [16]): an increase in the MIC was observed
- reduction of MICs of all the antibiotics except trimethoprim (Staphylococcus aureus; [16]): at least 4 fold
- MIC (Staphylococcus aureus; Staphylococcus aureus, SP-BIM 9 alone, one value per antibiotic's checkerboard, read-out: MIC SP-BIM 9 only): > 250 µg/mL
- MIC (Streptococcus pneumoniae [12]; Streptococcus pneumonia (title: Streptococcus pyogenes), SP-BIM 9 alone, one value per antibiotic's checkerboard, read-out: MIC SP-BIM 9 only): > 250 µg/mL
- effect on MIC of erythromycin (Streptococcus pneumoniae [12]; checkerboard with SP-BIM 9): no effect was observed
- lowering of the MIC of the antibiotics (Streptococcus pneumoniae [12]; checkerboard with SP-BIM 9): at least 4 fold
- MIC (Bacillus cereus): > 250 µg/mL
- MIC of vancomycin with 63 μg mL^−1 SP-BIM 9 (Enterococcus faecium; Enterococcus faecium strain highly resistant to vancomycin): reduced to susceptible levels
- MIC (Enterococcus faecium; Enterococcus faecium, SP-BIM 9 alone, one value per antibiotic's checkerboard, read-out: MIC SP-BIM 9 only): ≥ 250 µg/mL
- MIC (Klebsiella pneumoniae): ≥ 250 µg/mL
- FICI with most of the antibiotics [13]: ≤ 0.5
- MRSA counts in the liver (MRSA HS 10132; SP-BIM 9 only 5 mg kg^−1): 3911 CFU g^−1
- MRSA load in the spleen (MRSA HS 10132; SP-BIM 9 only 5 mg kg^−1): 7327 CFU g^−1
- MRSA counts in the liver (MRSA HS 10132; SP-BIM 9 only 10 mg kg^−1): 2861 CFU g^−1
- MRSA load in the spleen (MRSA HS 10132; SP-BIM 9 only 10 mg kg^−1): 5800 CFU g^−1
- MRSA counts in the liver (MRSA HS 10132; [17]): 167 CFU g^−1
- MRSA load in the spleen (MRSA HS 10132; [17]): 288 CFU g^−1
- MRSA counts in the liver (MRSA HS 10132; [18]): 189 CFU g^−1
- MRSA load in the spleen (MRSA HS 10132; [18]): 211 CFU g^−1
- MIC (Escherichia coli): ≥ 250 µg/mL

SMILES: Nc1ccc(C(c2c[nH]c3ccccc23)c2c[nH]c3ccccc23)cc1 [SP-BIM 10, 4-(di(1H-indol-3-yl)methyl)aniline]
- MIC [1]: > 250 µg/mL
- MIC [2]: > 250 µg/mL
- MIC [3]: > 250 µg/mL
- MIC [4]: > 250 µg/mL
- MIC [5]: > 250 µg/mL
- MIC [6]: > 250 µg/mL
- MIC [7]: > 250 µg/mL
- MIC [8]: 250 µg/mL
- MIC [9]: 250 µg/mL
- MIC [10]: 250 µg/mL
- MIC (Streptococcus pneumoniae [11]; [14]): 4 µg/mL
- MIC (Streptococcus pneumoniae [11]; [15]): 0.5 µg/mL
- potentiating activity for Gram-negative bacteria (Gram-negative bacteria): No potentiating activity was observed
